From US20120202787A1, “Novel Heteroaryl Imidazoles And Heteroaryl Triazoles As Gamma-Secretase Modulators” (Pfizer Inc., priority 2009, published 2012)

test system: γ-secretase (production of amyloid beta protein Aβ (1-42)); test: Cell-based γ-secretase assay with ELISA readout (Aβ (1-42) production); design: species or system human WT-APP overexpressing CHO cells; conditions: human WT-APP overexpressing CHO cells; Aβ (1-42) ELISA; about 24 hours at 37° C.; free base or salt; read-out: Aβ 42B IC50 (μM) (Geometric Mean of 2-8 Determinations)
Method: Cell-Based γ-Secretase Assay with ELISA Readout
The ability of compounds to modulate production of amyloid beta protein Aβ (1-42) was determined using human WT-APP overexpressing CHO cells. Cells were plated at 22,000 cells/100 μL well in 96 well tissue culture treated, clear plates (Falcon) in DMEM/F12 based medium and incubated for 24 hours at 37° C. Compounds for testing were diluted in 100% DMSO to achieve an eleven points, half log, dose response for IC50 determinations. Compounds were added in fresh medium to achieve 1% final DMSO. Appropriate vehicle and inhibitor controls were added to obtain maximum and minimum inhibition values for the assay before the plates were incubated for about 24 hours at 37° C.
Coating of ELISA assay plates was initiated by addition of 50 μL/well of an in-house Aβ (1-42) specific antibody at (4 μg/mL) in 0.1 M NaHCO3 (pH 9.0) into black 384-well Maxisorp® plates (Nunc) and incubated overnight at 4° C. The capture antibody was then aspirated from the ELISA assay plates and 100 μL/well of Blocking Buffer (Dulbecco's PBS, 1.5% BSA (Sigma A7030)) added. Ambient temperature incubation was allowed to proceed for a minimum of two hours before washing 2×100 μL with Wash Buffer (Dulbecco's PBS, 0.05% Tween 20). Assay Buffer (Dulbecco's PBS, 1.0% BSA (Sigma A7030), 0.05% Tween 20) 20 μL/well was then added.
After incubation overnight at 37° C., 5% CO2, 40 μL (in duplicate) of experimental conditioned media were transferred into wells of the blocked ELISA plates containing the capture antibody, followed by overnight incubation at 4° C. Cell toxicity was measured in the corresponding cells after removal of the media for the Aβ (1-42) assay by a colorimetric cell proliferation assay (CellTiter 96® AQueous One Solution Cell Proliferation Assay, Promega) according to the manufacturer's instructions.
After overnight incubation of the ELISA assay plates at 4° C., unbound Aβ peptides were removed thorough (4×100 μL) washes with Wash Buffer. Europium (Eu) labeled (custom labeled, Perkin Elmer) Aβ (1-16) 6e10 Monoclonal Antibody (Covance #SIG-39320 was added, (50 μL /well Eu-6e10 @ 1:5000, 20 uM EDTA) in Assay Buffer. Incubation at ambient temperature for a minimum of 2 hours was followed by (4×100 μL) washes with Wash Buffer, before 50 μL/well of Delfia Enhancement Solution (Perkin Elmer) was added. Following a one hour ambient temperature incubation, the plates were read on an EnVision plate reader (Perkin Elmer) using standard DELFIA TRF settings. Data analysis including inhibitory IC50 determination was performed using nonlinear regression fit analysis (in-house software) and the appropriate plate mean values for the maximum and minimum inhibition controls.

Row | IC50 | Structure (SMILES)
1 | 2.29 µM | COc1nc(C(=O)NCC2(c3ccccc3)CCCC2)cnc1-n1cnc(C)c1 [Example 2, 6-Methoxy-5-(4-methyl-1H-imidazol-1-yl)-N-[(1-phenylcyclopentyl)methyl]pyrazine-2-carboxamide]
2 | 1.75 µM | COc1nc(C(=O)NCc2cccc(C(F)(F)F)c2)cnc1-n1cnc(C)c1 [Example 4, 6-Methoxy-5-(4-methyl-1H-imidazol-1-yl)-N-[3-(trifluoromethyl)benzyl]pyrazine-2-carboxamide]
3 | 1.3 µM | COc1nc(C(=O)NCC2(c3ccc(F)cc3)CC2)cnc1-n1cnc(C)c1 [Example 6, N-{[1-(4-Fluorophenyl)cyclopropyl]methyl}-6-methoxy-5-(4-methyl-1H-imidazol-1-yl)pyrazine-2-carboxamide]
4 | 0.591 µM | COc1nc(C(=O)NCC2(c3ccc(Cl)cc3)CC2)cnc1-n1cnc(C)c1 [Example 7, N-{[1-(4-Chlorophenyl)cyclopropyl]methyl}-6-methoxy-5-(4-methyl-1H-imidazol-1-yl)pyrazine-2-carboxamide]
5 | 0.827 µM | COc1nc(C(=O)NCC2(c3cccc(C)c3)CCC2)cnc1-n1cnc(C)c1 [Example 10, 6-methoxy-5-(4-methyl-1H-imidazol-1-yl)-N-{[1-(3-methylphenyl)cyclobutyl]-methyl}pyrazine-2-carboxamide]
6 | 1.38 µM | COc1nc(C(=O)NCC2(c3ccc(F)cc3)CCC2)cnc1-n1cnc(C)c1 [Example 11, N-{[1-(4-fluorophenyl)-cyclobutyl]methyl}-6-methoxy-5-(4-methyl-1H-imidazol-1-yl)pyrazine-2-carboxamide]
7 | 1.45 µM | COc1nc(C(=O)NCC2(c3ccc(Cl)cc3)CCCC2)cnc1-n1cnc(C)c1 [Example 14, N-{[1-(4-chlorophenyl)cyclopentyl]methyl}-6-methoxy-5-(4-methyl-1H-imidazol-1-yl)pyrazine-2-carboxamide]
8 | 0.438 µM | COc1nc(C(=O)NCC2(c3cccc(C)c3)CCC2)ccc1-n1cnc(C)c1 [Example 27, 6-methoxy-5-(4-methyl-1H-imidazol-1-yl)-N-{[1-(3-methylphenyl)cyclobutyl]-methyl}pyridine-2-carboxamide]
9 | 0.314 µM | COc1nc(C(=O)NCC2(c3ccc(F)cc3)CCC2)ccc1-n1cnc(C)c1 [Example 28, N-{[1-(4-fluorophenyl)-cyclobutyl]methyl}-6-methoxy-5-(4-methyl-1H-imidazol-1-yl)pyridine-2-carboxamide]

The next lines start with the compound.

Row | Structure (SMILES) | IC50
10 | Cc1cn(-c2ccc(C(=O)NCC3(c4cccc(C(F)(F)F)c4)CCOCC3)cn2)cn1 [Example 1, 6-(4-Methyl-1H-imidazol-1-yl)-N-({4-[3-(trifluoromethyl)phenyl]tetrahydro-2H-pyran-4-yl}methyl)nicotinamide] | 13.6 µM
11 | COc1nc(C(=O)NCC2(c3ccc(Cl)cc3)CC2)ccc1-n1cnc(C)c1 [Example 3, N-{[1-(4-Chlorophenyl)cyclopropyl]methyl}-6-methoxy-5-(4-methyl-1H-imidazol-1-yl)pyridine-2-carboxamide] | 0.186 µM
12 | COc1nc(C(=O)NCC2(c3ccc(F)cc3)CC2)ccc1-n1cnc(C)c1 [Example 5, N-{[1-(4-Fluorophenyl)cyclopropyl]methyl}-6-methoxy-5-(4-methyl-1H-imidazol-1-yl)pyridine-2-carboxamide] | 0.34 µM
13 | COc1nc(C(=O)N2CC[C@H](Oc3ccccc3C(F)(F)F)C2)cnc1-n1cnc(C)c1 [Example 8, 3-methoxy-2-(4-methyl-1H-imidazol-1-yl)-5-({(3S)-3-[2-(trifluoromethyl)-phenoxy]pyrrolidin-1-yl}carbonyl)pyrazine] | 0.535 µM
14 | COc1nc(C(=O)N2CC[C@@H](Oc3ccccc3C(F)(F)F)C2)cnc1-n1cnc(C)c1 [Example 9, 3-methoxy-2-(4-methyl-1H-imidazol-1-yl)-5-({(3R)-3-[2-(trifluoromethyl)-phenoxy]pyrrolidin-1-yl}carbonyl)pyrazine] | 0.643 µM
15 | COc1nc(C(=O)NCCc2nc3ccc(Cl)cc3o2)cnc1-n1cnc(C)c1 [Example 12, N-[2-(6-chloro-1,3-benzoxazol-2-yl)ethyl]-6-methoxy-5-(4-methyl-1H-imidazol-1-yl)pyrazine-2-carboxamide] | 1.43 µM
16 | COc1nc(C(=O)NCC(C)(C)c2ccc(F)cc2)cnc1-n1cnc(C)c1 [Example 13, N-[2-(4-fluorophenyl)-2-methylpropyl]-6-methoxy-5-(4-methyl-1H-imidazol-1-yl)pyrazine-2-carboxamide] | 1.36 µM
17 | COc1nc(C(=O)NC(C)(C)c2cccc(Cl)c2)cnc1-n1cnc(C)c1 [Example 15, N-[1-(3-chlorophenyl)-1-methylethyl]-6-methoxy-5-(4-methyl-1H-imidazol-1-yl)pyrazine-2-carboxamide] | 1.82 µM
18 | COc1nc(C(=O)NCc2cnc(-c3ccccc3)s2)cnc1-n1cnc(C)c1 [Example 16, 6-methoxy-5-(4-methyl-1H-imidazol-1-yl)-N-[(2-phenyl-1,3-thiazol-5-yl)methyl]pyrazine-2-carboxamide] | 1.94 µM
19 | COc1nc(C(=O)NC(C)(C)c2ccc(F)cc2)cnc1-n1cnc(C)c1 [Example 17, N-[1-(4-fluorophenyl)-1-methylethyl]-6-methoxy-5-(4-methyl-1H-imidazol-1-yl)pyrazine-2-carboxamide] | 2.41 µM
20 | COc1nc(C(=O)NCc2ccc(OC(F)(F)F)cc2)cnc1-n1cnc(C)c1 [Example 18, 6-methoxy-5-(4-methyl-1H-imidazol-1-yl)-N-[4-(trifluoromethoxy)benzyl]-pyrazine-2-carboxamide] | 5.43 µM
21 | COc1nc(C(=O)NCC2CCCC2)cnc1-n1cnc(C)c1 [Example 19, N-(cyclopentylmethyl)-6-methoxy-5-(4-methyl-1H-imidazol-1-yl)pyrazine-2-carboxamide] | 5.77 µM
22 | COc1cc(C(=O)N2CC[C@H](Oc3ccccc3C(F)(F)F)C2)ncc1-n1cnc(C)c1 [Example 20, 4-methoxy-5-(4-methyl-1H-imidazol-1-yl)-2-({(3S)-3-[2-(trifluoromethyl)-phenoxy]pyrrolidin-1-yl}carbonyl)pyridine] | 5.33 µM
23 | COc1cc(C(=O)NCCc2c(C)[nH]c3c(Cl)cc(Cl)cc23)ncc1-n1cnc(C)c1 [Example 21, N-[2-(5,7-dichloro-2-methyl-1H-indol-3-yl)ethyl]-4-methoxy-5-(4-methyl-1H-imidazol-1-yl)pyridine-2-carboxamide] | 6.25 µM
24 | COc1cc(C(=O)NCc2sc3c(F)ccc(F)c3c2Cl)ncc1-n1cnc(C)c1 [Example 22, N-[(3-chloro-4,7-difluoro-1-benzothien-2-yl)methyl]-4-methoxy-5-(4-methyl-1H-imidazol-1-yl)pyridine-2-carboxamide] | > 15.8 µM
25 | COc1cc(C(=O)NCC2(c3ccc(C(F)(F)F)cc3)CCOCC2)ncc1-n1cnc(C)c1 [Example 23, 4-methoxy-5-(4-methyl-1H-imidazol-1-yl)-N-({4-[4-(trifluoromethyl)phenyl]-tetrahydro-2H-pyran-4-yl}methyl)pyridine-2-carboxamide] | 17.2 µM
26 | COc1cc(C(=O)NCCc2c[nH]c3ccc(Cl)cc23)ncc1-n1cnc(C)c1 [Example 24, N-[2-(5-chloro-1H-indol-3-yl)ethyl]-4-methoxy-5-(4-methyl-1H-imidazol-1-yl)pyridine-2-carboxamide] | 18 µM
27 | COc1nc(C(=O)NCC2(c3ccccc3)CCCC2)ccc1-n1cnc(C)c1 [Example 25, 6-methoxy-5-(4-methyl-1H-imidazol-1-yl)-N-[(1-phenylcycloentyl)methyl] pyridine-2-carboxamide] | 0.316 µM
28 | COc1nc(C(=O)NCCc2nc3ccc(Cl)cc3o2)ccc1-n1cnc(C)c1 [Example 26, N-[2-(6-chloro-1,3-benzoxazol-2-yl)ethyl]-6-methoxy-5-(4-methyl-1H-imidazol-1-yl)pyridine-2-carboxamide] | 0.524 µM
29 | COc1nc(C(=O)NCC(C)(C)c2ccc(F)cc2)ccc1-n1cnc(C)c1 [Example 29, N-[2-(4-fluorophenyl)-2-methylpropyl]-6-methoxy-5-(4-methyl-1H-imidazol-1-yl)pyridine-2-carboxamide] | 0.502 µM
30 | COc1nc(C(=O)NCc2cccc(C(F)(F)F)c2)ccc1-n1cnc(C)c1 [Example 30, 6-methoxy-5-(4-methyl-1H-imidazol-1-yl)-N-[3-(trifluoromethyl)benzyl]-pyridine-2-carboxamide] | 0.502 µM
